From patent publication US8168592B2 (Amgen Inc., priority 2005, dated 2012)
pIC50: −log10 of the molar value. Square brackets hold non-standard residues; d marks the D form. Peptide text beside a SMILES is read from it. Cit = NC(=O)NCCC[C@H](N)C(=O)O

What follows are compounds tested against T1, CGRP1 receptor (Homo sapiens, UniProt O60894+Q16602) (assay: in vitro CGRP1 receptor mediated cAMP assay in SK-N-MC cells). Conditions: Table 2A; read-out: IC50.
T1 construct: SK-N-MC cells express CRLR and RAMP1, which form CGRP1 receptor; endogenous in cells; host or cells: SK-N-MC human neuroblastoma cells
Assay type: cell-based
Summary of the method: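 Human SK-N-MC neuroblastoma cells, which endogenously express CRLR/RAMP1, were plated two days before assay and preincubated in plasma-free medium for 15 minutes at room temperature. Cells were then lysed for 30 minutes at 37° C, and cAMP in the lysates was quantified by competitive cAMP-AP chemiluminescent ELISA.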

T1 sequence (Q16602 23-461): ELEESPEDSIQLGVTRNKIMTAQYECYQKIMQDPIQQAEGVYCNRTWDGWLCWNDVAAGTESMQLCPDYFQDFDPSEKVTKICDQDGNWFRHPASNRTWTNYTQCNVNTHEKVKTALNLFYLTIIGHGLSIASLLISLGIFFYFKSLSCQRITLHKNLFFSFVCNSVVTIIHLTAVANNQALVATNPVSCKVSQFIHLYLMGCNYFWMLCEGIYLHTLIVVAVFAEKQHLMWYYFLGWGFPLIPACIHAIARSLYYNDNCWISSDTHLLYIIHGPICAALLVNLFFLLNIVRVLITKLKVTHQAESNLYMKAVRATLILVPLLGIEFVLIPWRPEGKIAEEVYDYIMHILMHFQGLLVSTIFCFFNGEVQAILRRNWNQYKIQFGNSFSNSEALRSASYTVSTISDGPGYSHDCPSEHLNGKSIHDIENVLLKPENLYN
T1 sequence (O60894 27-148): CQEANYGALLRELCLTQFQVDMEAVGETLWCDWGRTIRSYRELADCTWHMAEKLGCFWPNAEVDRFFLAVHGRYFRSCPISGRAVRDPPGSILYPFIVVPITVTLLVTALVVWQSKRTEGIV

| pIC50 | Compound |
| --- | --- |
| 6.58 to 7.48 | CC(=O)N[C@@H](Cc1c[nH]c2ccccc12)C(=O)N[C@H](C(=O)N[C@H](C(=O)N[C@@H](Cc1c[nH]cn1)C(=O)N[C@@H](CCCNC(N)=O)C(=O)N[C@@H](CC(C)C)C(=O)N[C@@H](C)C(=O)NCC(=O)N[C@@H](CC(C)C)C(=O)N[C@@H](CC(C)C)C(=O)N[C@@H](CO)C(=O)N[C@@H](CCCNC(N)=O)C(=O)N[C@@H](CO)C(=O)NCC(=O)NCC(=O)N[C@H](C(=O)N[C@H](C(=O)N[C@@H](CCCCNC(=N)N)C(=O)N[C@@H](CCCCN)C(=O)N[C@@H](CC(N)=O)C(=O)N[C@@H](Cc1ccccc1)C(=O)N[C@H](C(=O)N1CCC[C@H]1C(=O)N[C@H](C(=O)N[C@@H](CC(=O)O)C(=O)N[C@H](C(=O)NCC(=O)NC1(C(=O)N[C@@H](Cc2ccccc2)C(=O)N[C@@H](C)C(=O)N[C@@H](Cc2ccccc2)C(N)=O)Cc2ccccc2C1)C(C)C)[C@@H](C)O)C(C)C)C(C)C)C(C)C)[C@@H](C)O)C(C)C [compound 669] |
| 8.67 | CC(=O)N[C@@H](Cc1c[nH]c2ccccc12)C(=O)N[C@H](C(=O)N[C@H](C(=O)N[C@@H](Cc1cnc[nH]1)C(=O)N[C@@H](CCCNC(N)=O)C(=O)N[C@@H](CC(C)C)C(=O)N[C@@H](C)C(=O)NCC(=O)N[C@@H](CC(C)C)C(=O)N[C@@H](CC(C)C)C(=O)N[C@@H](CO)C(=O)N[C@@H](CCCNC(N)=O)C(=O)N[C@@H](CO)C(=O)NCC(=O)NCC(=O)N[C@H](C(=O)N[C@H](C(=O)N[C@@H](CCCCN=C(N)N)C(=O)N[C@@H](CCCCN)C(=O)N[C@@H](CC(N)=O)C(=O)N[C@@H](Cc1ccccc1)C(=O)N[C@H](C(=O)N1CCC[C@H]1C(=O)N[C@H](C(=O)N[C@@H](CC(=O)O)C(=O)N[C@H](C(=O)NCC(=O)N1CSC[C@H]1C(=O)N[C@@H](Cc1ccccc1)C(=O)N[C@@H](C)C(=O)N[C@@H](Cc1ccccc1)C(N)=O)C(C)C)[C@@H](C)O)C(C)C)C(C)C)C(C)C)[C@@H](C)O)C(C)C [compound 671] |
| 8.35 to 8.50 | CC(=O)N[C@@H](Cc1c[nH]c2ccccc12)C(=O)N[C@H](C(=O)N[C@H](C(=O)N[C@@H](Cc1cnc[nH]1)C(=O)N[C@@H](CCCNC(N)=O)C(=O)N[C@@H](CC(C)C)C(=O)N[C@@H](C)C(=O)NCC(=O)N[C@@H](CC(C)C)C(=O)N[C@@H](CC(C)C)C(=O)N[C@@H](CO)C(=O)N[C@@H](CCCNC(N)=O)C(=O)N[C@@H](CO)C(=O)NCC(=O)NCC(=O)N[C@H](C(=O)N[C@H](C(=O)N[C@@H](CCCCNC(=N)N)C(=O)N[C@@H](CCCCN)C(=O)N[C@@H](CC(N)=O)C(=O)N[C@@H](Cc1ccccc1)C(=O)N[C@H](C(=O)N1CCC[C@H]1C(=O)N[C@H](C(=O)N[C@@H](CC(=O)O)C(=O)N[C@H](C(=O)NCC(=O)N(C)CC(=O)N[C@@H](Cc1ccccc1)C(=O)N[C@@H](C)C(=O)N[C@@H](Cc1ccccc1)C(N)=O)C(C)C)[C@@H](C)O)C(C)C)C(C)C)C(C)C)[C@@H](C)O)C(C)C [compound 672] |

Same assay, conditions: Table 2C; unconjugated peptide; read-out: Peptide IC50

| pIC50 | Compound |
| --- | --- |
| 9.24 | CC(=O)N[C@@H](Cc1c[nH]c2ccccc12)C(=O)N[C@H](C(=O)N[C@H](C(=O)N[C@@H](Cc1cnc[nH]1)C(=O)N[C@@H](CCCNC(N)=O)C(=O)N[C@@H](CC(C)C)C(=O)N[C@@H](C)C(=O)NCC(=O)N[C@@H](CC(C)C)C(=O)N[C@@H](CC(C)C)C(=O)N[C@@H](CO)C(=O)N[C@@H](CCCN=C(N)N)C(=O)N[C@@H](CO)C(=O)NCC(=O)NCC(=O)N[C@H](C(=O)N[C@H](C(=O)N[C@@H](CCCN=C(N)N)C(=O)N[C@@H](CCCCN)C(=O)N[C@@H](CC(N)=O)C(=O)N[C@@H](Cc1ccccc1)C(=O)N[C@H](C(=O)N1CCC[C@H]1C(=O)N[C@H](C(=O)N[C@@H](CC(=O)O)C(=O)N[C@H](C(=O)NCC(=O)N1CCC[C@H]1C(=O)N[C@@H](Cc1ccccc1)C(=O)N[C@@H](C)C(=O)N[C@@H](Cc1ccccc1)C(N)=O)C(C)C)[C@@H](C)O)C(C)C)C(C)C)C(C)C)[C@@H](C)O)C(C)C [compound 861] |
| 9.24 | CC(=O)N[C@@H](Cc1c[nH]c2ccccc12)C(=O)N[C@H](C(=O)N[C@H](C(=O)N[C@@H](Cc1cnc[nH]1)C(=O)N[C@@H](CCCNC(=N)N)C(=O)N[C@@H](CC(C)C)C(=O)N[C@@H](C)C(=O)NCC(=O)N[C@@H](CC(C)C)C(=O)N[C@@H](CC(C)C)C(=O)N[C@@H](CO)C(=O)N[C@@H](CCCNC(N)=O)C(=O)N[C@@H](CO)C(=O)NCC(=O)NCC(=O)N[C@H](C(=O)N[C@H](C(=O)N[C@@H](CCCN=C(N)N)C(=O)N[C@@H](CCCCN)C(=O)N[C@@H](CC(N)=O)C(=O)N[C@@H](Cc1ccccc1)C(=O)N[C@H](C(=O)N1CCC[C@H]1C(=O)N[C@H](C(=O)N[C@@H](CC(=O)O)C(=O)N[C@H](C(=O)NCC(=O)N1CCC[C@H]1C(=O)N[C@@H](Cc1ccccc1)C(=O)N[C@@H](C)C(=O)N[C@@H](Cc1ccccc1)C(N)=O)C(C)C)[C@@H](C)O)C(C)C)C(C)C)C(C)C)[C@@H](C)O)C(C)C [compound 862] |
| 9.24 | CC(=O)N[C@@H](Cc1c[nH]c2ccccc12)C(=O)N[C@H](C(=O)N[C@H](C(=O)N[C@@H](Cc1c[nH]cn1)C(=O)N[C@@H](CCCNC(=N)N)C(=O)N[C@@H](CC(C)C)C(=O)N[C@@H](C)C(=O)NCC(=O)N[C@@H](CC(C)C)C(=O)N[C@@H](CC(C)C)C(=O)N[C@@H](CO)C(=O)N[C@@H](CCCCNC(=N)N)C(=O)N[C@@H](CO)C(=O)NCC(=O)NCC(=O)N[C@H](C(=O)N[C@H](C(=O)N[C@@H](CCCNC(=N)N)C(=O)N[C@@H](CCCCN)C(=O)N[C@@H](CC(N)=O)C(=O)N[C@@H](Cc1ccccc1)C(=O)N[C@H](C(=O)N1CCC[C@H]1C(=O)N[C@H](C(=O)N[C@@H](CC(=O)O)C(=O)N[C@H](C(=O)NCC(=O)N1CCC[C@H]1C(=O)N[C@@H](Cc1ccccc1)C(=O)N[C@@H](C)C(=O)N[C@@H](Cc1ccccc1)C(N)=O)C(C)C)[C@@H](C)O)C(C)C)C(C)C)C(C)C)[C@@H](C)O)C(C)C [compound 864] |
| 9.36 | CC(=O)N[C@@H](Cc1c[nH]c2ccccc12)C(=O)N[C@H](C(=O)N[C@H](C(=O)N[C@@H](Cc1c[nH]cn1)C(=O)N[C@@H](CCCCNC(=N)N)C(=O)N[C@@H](CC(C)C)C(=O)N[C@@H](C)C(=O)NCC(=O)N[C@@H](CC(C)C)C(=O)N[C@@H](CC(C)C)C(=O)N[C@@H](CO)C(=O)N[C@@H](CCCNC(=N)N)C(=O)N[C@@H](CO)C(=O)NCC(=O)NCC(=O)N[C@H](C(=O)N[C@H](C(=O)N[C@@H](CCCNC(=N)N)C(=O)N[C@@H](CCCCN)C(=O)N[C@@H](CC(N)=O)C(=O)N[C@@H](Cc1ccccc1)C(=O)N[C@H](C(=O)N1CCC[C@H]1C(=O)N[C@H](C(=O)N[C@@H](CC(=O)O)C(=O)N[C@H](C(=O)NCC(=O)N1CCC[C@H]1C(=O)N[C@@H](Cc1ccccc1)C(=O)N[C@@H](C)C(=O)N[C@@H](Cc1ccccc1)C(N)=O)C(C)C)[C@@H](C)O)C(C)C)C(C)C)C(C)C)[C@@H](C)O)C(C)C [compound 865] |

Same assay, conditions: Table 2D; read-out: IC50

| pIC50 | Compound |
| --- | --- |
| 9.23 | CC(=O)N[C@@H](Cc1c[nH]c2ccccc12)C(=O)N[C@H](C(=O)N[C@H](C(=O)N[C@@H](Cc1c[nH]cn1)C(=O)N[C@@H](CCCNC(=N)N)C(=O)N[C@@H](CC(C)C)C(=O)N[C@@H](C)C(=O)NCC(=O)N[C@@H](CC(C)C)C(=O)N[C@@H](CC(C)C)C(=O)N[C@@H](CO)C(=O)N[C@H](CCCNC(=N)N)C(=O)N[C@@H](CO)C(=O)NCC(=O)NCC(=O)N[C@H](C(=O)N[C@H](C(=O)N[C@@H](CCCNC(=N)N)C(=O)N[C@@H](CS)C(=O)N[C@@H](CC(N)=O)C(=O)N[C@@H](Cc1ccccc1)C(=O)N[C@H](C(=O)N1CCC[C@H]1C(=O)N[C@H](C(=O)N[C@@H](CC(=O)O)C(=O)N[C@H](C(=O)NCC(=O)N1CCC[C@H]1C(=O)N[C@@H](Cc1ccccc1)C(=O)N[C@@H](C)C(=O)N[C@@H](Cc1ccccc1)C(N)=O)C(C)C)[C@@H](C)O)C(C)C)C(C)C)C(C)C)[C@@H](C)O)C(C)C [compound 776] (Ac-WVTHRLAGLLS[dR]SGGVVRCNFVPTDVGPFAF-NH2) |
| 8.68 | CC(=O)N[C@@H](Cc1c[nH]c2ccccc12)C(=O)N[C@H](C(=O)N[C@H](C(=O)N[C@@H](Cc1cnc[nH]1)C(=O)N[C@@H](CCCCNC(=N)N)C(=O)N[C@@H](CC(C)C)C(=O)N[C@@H](C)C(=O)NCC(=O)N[C@@H](CC(C)C)C(=O)N[C@@H](CC(C)C)C(=O)N[C@@H](CO)C(=O)N[C@@H](CCCCNC(=N)N)C(=O)N[C@@H](CO)C(=O)NCC(=O)NCC(=O)N[C@H](C(=O)N[C@H](C(=O)N[C@@H](CCCNC(=N)N)C(=O)N[C@@H](CCCCN)C(=O)N[C@@H](CC(N)=O)C(=O)N[C@@H](Cc1ccccc1)C(=O)N[C@H](C(=O)N1CCC[C@H]1C(=O)N[C@H](C(=O)N[C@@H](CC(=O)O)C(=O)N[C@H](C(=O)NCC(=O)N1CCC[C@H]1C(=O)N[C@@H](Cc1ccccc1)C(=O)N[C@@H](C)C(=O)N[C@@H](Cc1ccccc1)C(N)=O)C(C)C)[C@@H](C)O)C(C)C)C(C)C)C(C)C)[C@@H](C)O)C(C)C [compound 784] |
| 8.73 | CC(=O)N[C@@H](Cc1c[nH]c2ccccc12)C(=O)N[C@H](C(=O)N[C@H](C(=O)N[C@@H](Cc1c[nH]cn1)C(=O)N[C@@H](CCCNC(=N)N)C(=O)N[C@@H](CC(C)C)C(=O)N[C@@H](C)C(=O)NCC(=O)N[C@@H](CC(C)C)C(=O)N[C@@H](C)C(=O)N[C@@H](CO)C(=O)N[C@@H](CCCNC(N)=O)C(=O)N[C@@H](CO)C(=O)NCC(=O)NCC(=O)N[C@H](C(=O)N[C@H](C(=O)N[C@@H](CCCNC(=N)N)C(=O)N[C@@H](CCCCN)C(=O)N[C@@H](CC(N)=O)C(=O)N[C@@H](Cc1ccccc1)C(=O)N[C@H](C(=O)N1CCC[C@H]1C(=O)N[C@H](C(=O)N[C@@H](CC(=O)O)C(=O)N[C@H](C(=O)NCC(=O)N1CCC[C@H]1C(=O)N[C@@H](Cc1ccccc1)C(=O)N[C@@H](C)C(=O)N[C@@H](Cc1ccccc1)C(N)=O)C(C)C)[C@@H](C)O)C(C)C)C(C)C)C(C)C)[C@@H](C)O)C(C)C [compound 850] (Ac-WVTHRLAGLAS[Cit]SGGVVRKNFVPTDVGPFAF-NH2) |
